system: HCV 1b genotype; experiment: HCV Replicon assay (HCV 1b genotype); format: cell-based, Hepatitis C virus; conditions: HCV 1b genotype replicon; class symbol; read-out: Range (EC50 values against HCV 1b)
Description: An HCV Replicon assay was utilized in the present disclosure, and was prepared, conducted and validated as described in commonly owned PCT/US2006/022197 and in O'Boyle et. al. Antimicrob Agents Chemother. 2005 April; 49(4):1346-53. Assay methods incorporating luciferase reporters have also been used as described (Apath.com).
HCV-neo replicon cells and replicon cells containing mutations in the NS5A region were used to test the currently described family of compounds. The compounds were determined to have more than 10-fold less inhibitory activity on cells containing mutations than wild-type cells. Thus, the compounds of the present disclosure can be effective in inhibiting the function of the HCV NS5A protein and are understood to be as effective in combinations as previously described in application PCT/US2006/022197 and commonly owned WO/04014852. Further, the compounds of the present disclosure can be effective against the HCV 1b genotype. It should also be understood that the compounds of the present disclosure can inhibit multiple genotypes of HCV. […] In one embodiment, compounds of the present disclosure are inhibitory versus 1a, 1b, 2a, 2b, 3a, 4a, and 5a genotypes.

Row | Compound | EC50 [nM]
1 | COC(=O)N[C@H](C(=O)N1C[C@@H](C)C[C@H]1c1nc(Cl)c(-c2ccc(C#Cc3ccc(-c4[nH]c([C@@H]5C[C@H](C)CN5C(=O)[C@@H](NC(=O)OC)C(C)C)nc4Cl)cc3)cc2)[nH]1)C(C)C [Example M12.5] | 0.002 to 0.099

same assay, conditions: Hepatitis C virus; HCV 1b genotype replicon; Effective 50% inhibitory concentration; read-out: 1b EC50

Row | Compound | EC50 [nM]
2 | COC(=O)N[C@H](C(=O)N1[C@@H]2C[C@@H]2C[C@H]1c1nc(-c2ccc(/C=C/c3ccc(-c4c[nH]c([C@@H]5C[C@H]6C[C@H]6N5C(=O)[C@@H](NC(=O)OC)C5CCOCC5)n4)cc3)cc2)c[nH]1)C1CCOCC1 [Example M14, dimethyl ((E)-1,2-ethenediylbis(4,1-phenylene-1H-imidazole-4,2-diyl(1R,3S,5R)-2-azabicyclo[3.1.0]hexane-3,2-diyl((1S)-2-oxo-1-(tetrahydro-2H-pyran-4-yl)-2,1-ethanediyl)))biscarbamate] | 0.017
3 | COC(=O)N[C@H](C(=O)N1C[C@@H](C)C[C@H]1c1nc(Cl)c(-c2ccc(C#Cc3ccc(-c4[nH]c([C@@H]5C[C@H](C)CN5C(=O)[C@@H](NC(=O)OC)C5CCOCC5)nc4Cl)cc3)cc2)[nH]1)C1CCOCC1 [Example M12.7, dimethyl (1,2-ethynediylbis(4,1-phenylene(4-chloro-1H-imidazole-5,2-diyl)((2S,4S)-4-methyl-2,1-pyrrolidinediyl)((1S)-2-oxo-1-(tetrahydro-2H-pyran-4-yl)-2,1-ethanediyl)))biscarbamate] | 0.061

same assay, conditions: Hepatitis C virus; HCV 1b genotype replicon; class symbol; read-out: Range (EC50 values against HCV 1b)

Row | Compound | EC50 [nM]
4 | COC(=O)N[C@H](C(=O)N1[C@@H]2C[C@@H]2C[C@H]1c1ncc(-c2ccc([C@H]3C[C@@H]3c3ccc(-c4cnc([C@@H]5C[C@H]6C[C@H]6N5C(=O)[C@@H](NC(=O)OC)C(C)C)[nH]4)cc3)cc2)[nH]1)C(C)C [Example M9.3] | 0.002 to 0.099
5 | CNC(=O)N[C@@H](C(=O)N1CCC[C@H]1c1nc(-c2ccc(COCc3ccc(-c4cnc([C@@H]5CCCN5C(=O)[C@H](NC(=O)NC)c5ccccc5)[nH]4)cc3)cc2)c[nH]1)c1ccccc1 [OL-17, 1-methyl-3-((1R)-2-((2S)-2-(4-(4-(((4-(2-((2S)-1-((2R)-2-((methylcarbamoyl)amino)-2-phenylacetyl)-2-pyrrolidinyl)-1H-imidazol-5-yl)benzyl)oxy)methyl)phenyl)-1H-imidazol-2-yl)-1-pyrrolidinyl)-2-oxo-1-phenylethyl)urea] | 0.002 to 0.099
6 | COC(=O)N[C@H](C(=O)N1[C@@H]2C[C@@H]2C[C@H]1c1ncc(-c2cccc(C#Cc3cccc(-c4cnc([C@@H]5C[C@H]6C[C@H]6N5C(=O)[C@@H](NC(=O)OC)C(C)C)[nH]4)c3)c2)[nH]1)C(C)C [Example J3, methyl ((1S)-1-(((1R,3S,5R)-3-(4-(3-((3-(2-((1R,3S,5R)-2-((2S)-2-((methoxycarbonyl)amino)-3-methylbutanoyl)-2-azabicyclo[3.1.0]hex-3-yl)-1H-imidazol-4-yl)phenyl)ethynyl)phenyl)-1H-imidazol-2-yl)-2-azabicyclo[3.1.0]hex-2-yl)carbonyl)-2-methylpropyl)carbamate] | 0.002 to 0.099
7 | COC(=O)N[C@H](C(=O)N1[C@@H](C)CC[C@H]1c1ncc(-c2ccc(C#Cc3ccc(-c4cnc([C@@H]5CC[C@H](C)N5C(=O)[C@@H](NC(=O)OC)C5CCOCC5)[nH]4)cc3)cc2)[nH]1)C(C)C [Example M12.1, methyl ((1S)-1-(((2S,5S)-2-(4-(4-((4-(2-((2S,5S)-1-((2S)-2-((methoxycarbonyl)amino)-2-(tetrahydro-2H-pyran-4-yl)acetyl)-5-methyl-2-pyrrolidinyl)-1H-imidazol-4-yl)phenyl)ethynyl)phenyl)-1H-imidazol-2-yl)-5-methyl-1-pyrrolidinyl)carbonyl)-2-methylpropyl)carbamate] | 0.002 to 0.099
8 | COC(=O)N[C@H](C(=O)N1C[C@@H](O)C[C@H]1c1ncc(-c2ccc(C#Cc3ccc(-c4cnc([C@@H]5C[C@H](O)CN5C(=O)[C@@H](NC(=O)OC)C(C)C)[nH]4)cc3)cc2)[nH]1)C(C)C [Example N7, methyl ((1S)-1-(((2S,4S)-4-hydroxy-2-(4-(4-((4-(2-((2S,4S)-4-hydroxy-1-((2S)-2-((methoxycarbonyl)amino)-3-methylbutanoyl)-2-pyrrolidinyl)-1H-imidazol-4-yl)phenyl)ethynyl)phenyl)-1H-imidazol-2-yl)-1-pyrrolidinyl)carbonyl)-2-methylpropyl)carbamate] | 0.002 to 0.099
9 | COC(=O)N[C@H](C(=O)N1[C@@H]2C[C@@H]2C[C@H]1c1nc(-c2ccc(/C=C/c3ccc(-c4c[nH]c([C@@H]5C[C@H]6C[C@H]6N5C(=O)[C@@H](NC(=O)OC)C5CCOCC5)n4)cc3)cc2)c[nH]1)C1CCOCC1 [Example M14, dimethyl ((E)-1,2-ethenediylbis(4,1-phenylene-1H-imidazole-4,2-diyl(1R,3S,5R)-2-azabicyclo[3.1.0]hexane-3,2-diyl((1S)-2-oxo-1-(tetrahydro-2H-pyran-4-yl)-2,1-ethanediyl)))biscarbamate] | 0.002 to 0.099
10 | O=C([C@H](O)c1ccccc1)N1CCC[C@H]1c1nc(-c2ccc(COCc3cccc(-c4c[nH]c([C@@H]5CCCN5C(=O)[C@H](O)c5ccccc5)n4)c3)cc2)c[nH]1 [OL-21, (1R)-2-((2S)-2-(4-(3-(((4-(2-((2S)-1-((2R)-2-hydroxy-2-phenylacetyl)-2-pyrrolidinyl)-1H-imidazol-4-yl)benzyl)oxy)methyl)phenyl)-1H-imidazol-2-yl)-1-pyrrolidinyl)-2-oxo-1-phenylethanol] | 0.1 to 0.99
11 | CN(C)[C@@H](C(=O)N1CCC[C@H]1c1ncc(-c2ccc(Oc3ccc(-c4cnc([C@@H]5CCCN5C(=O)[C@@H](c5ccccc5)N(C)C)[nH]4)cc3)cc2)[nH]1)c1ccccc1 [OL-1, (1R)-2-((2S)-2-(4-(4-(4-(2-((2S)-1-((2R)-2-(dimethylamino)-2-phenylacetyl)-2-pyrrolidinyl)-1H-imidazol-5-yl)phenoxy)phenyl)-1H-imidazol-2-yl)-1-pyrrolidinyl)-N,N-dimethyl-2-oxo-1-phenylethanamine] | 1 to 9.9
12 | COC(=O)N[C@H](C(=O)N1[C@@H]2C[C@@H]2C[C@H]1c1nc(-c2ccc(/C=C/c3ccc(-c4c[nH]c([C@@H]5C[C@H]6C[C@H]6N5C(=O)[C@@H](NC(=O)OC)C5CCOCC5)n4)cc3)cc2)c[nH]1)C(C)C [Example M15, methyl ((1S)-2-((1R,3S,5R)-3-(4-(4-((E)-2-(4-(2-((1R,3S,5R)-2-((2S)-2-((methoxycarbonyl)amino)-3-methylbutanoyl)-2-azabicyclo[3.1.0]hex-3-yl)-1H-imidazol-4-yl)phenyl)vinyl)phenyl)-1H-imidazol-2-yl)-2-azabicyclo[3.1.0]hex-2-yl)-2-oxo-1-(tetrahydro-2H-pyran-4-yl)ethyl)carbamate] | 0.002 to 0.099
13 | COC(=O)N[C@H](C(=O)N1CC(F)(F)C[C@H]1c1ncc(-c2ccc(C#Cc3ccc(-c4cnc([C@@H]5CC(F)(F)CN5C(=O)[C@@H](NC(=O)OC)C5CCOCC5)[nH]4)cc3)cc2)[nH]1)C1CCOCC1 [Example N2, dimethyl (ethyne-1,2-diylbis(4,1-phenylene-1H-imidazole-5,2-diyl((2S)-4,4-difluoropyrrolidine-2,1-diyl)((1S)-2-oxo-1-(tetrahydro-2H-pyran-4-yl)ethane-2,1-diyl)))biscarbamate] | 0.002 to 0.099
14 | CN(C)[C@@H](C(=O)N1CCC[C@H]1c1ncc(-c2ccc(CCc3ccc(-c4cnc([C@@H]5CCCN5C(=O)[C@@H](c5ccccc5)N(C)C)[nH]4)cc3)cc2)[nH]1)c1ccccc1 [OL-9, (1R)-2-((2S)-2-(4-(4-(2-(4-(2-((2S)-1-((2R)-2-(dimethylamino)-2-phenylacetyl)-2-pyrrolidinyl)-1H-imidazol-5-yl)phenyl)ethyl)phenyl)-1H-imidazol-2-yl)-1-pyrrolidinyl)-N,N-dimethyl-2-oxo-1-phenylethanamine] | 0.002 to 0.099
15 | CC[C@H](NC(=O)OC)C(=O)N1[C@@H](C)CC[C@H]1c1nc(-c2ccc(C#Cc3ccc(-c4c[nH]c([C@@H]5CC[C@H](C)N5C(=O)[C@H](CC)NC(=O)OC)n4)cc3)cc2)c[nH]1 [Example M11, dimethyl (1,2-ethynediylbis(4,1-phenylene-1H-imidazole-4,2-diyl((2S,5S)-5-methyl-2,1-pyrrolidinediyl)((2S)-1-oxo-1,2-butanediyl)))biscarbamate] | 0.002 to 0.099
16 | COC(=O)N[C@H](C(=O)N1[C@@H]2C[C@@H]2C[C@H]1c1nc(-c2ccc(C#Cc3ccc(-c4[nH]c([C@@H]5C[C@H]6C[C@H]6N5C(=O)[C@@H](NC(=O)OC)C5CCOCC5)nc4Cl)cc3)cc2)c[nH]1)C1CCOCC1 [Example M9.1, methyl ((1S)-2-((1R,3S,5R)-3-(4-(4-((4-(4-chloro-2-((1R,3S,5R)-2-((2S)-2-((methoxycarbonyl)amino)-2-(tetrahydro-2H-pyran-4-yl)acetyl)-2-azabicyclo[3.1.0]hex-3-yl)-1H-imidazol-5-yl)phenyl)ethynyl)phenyl)-1H-imidazol-2-yl)-2-azabicyclo[3.1.0]hex-2-yl)-2-oxo-1-(tetrahydro-2H-pyran-4-yl)ethyl)carbamate] | 0.002 to 0.099
17 | CNC(=O)N[C@@H](C(=O)N1CCC[C@H]1c1nc(-c2ccc(COCc3cccc(-c4c[nH]c([C@@H]5CCCN5C(=O)[C@H](NC(=O)NC)c5ccccc5)n4)c3)cc2)c[nH]1)c1ccccc1 [OL-23, 1-methyl-3-((1R)-2-((2S)-2-(4-(3-(((4-(2-((2S)-1-((2R)-2-((methylcarbamoyl)amino)-2-phenylacetyl)-2-pyrrolidinyl)-1H-imidazol-4-yl)benzyl)oxy)methyl)phenyl)-1H-imidazol-2-yl)-1-pyrrolidinyl)-2-oxo-1-phenylethyl)urea] | 0.1 to 0.99
18 | COC(=O)N[C@H](C(=O)N1C[C@@H](C)C[C@H]1c1nc(Cl)c(-c2ccc(C#Cc3ccc(-c4[nH]c([C@@H]5C[C@H](C)CN5C(=O)[C@@H](NC(=O)OC)C5CCOCC5)nc4Cl)cc3)cc2)[nH]1)C1CCOCC1 [Example M12.7, dimethyl (1,2-ethynediylbis(4,1-phenylene(4-chloro-1H-imidazole-5,2-diyl)((2S,4S)-4-methyl-2,1-pyrrolidinediyl)((1S)-2-oxo-1-(tetrahydro-2H-pyran-4-yl)-2,1-ethanediyl)))biscarbamate] | 0.002 to 0.099
19 | COC(=O)N[C@H](C(=O)N1[C@@H]2C[C@@H]2C[C@H]1c1ncc(-c2ccc(C#Cc3ccc4c(ccc5nc([C@@H]6C[C@H]7C[C@H]7N6C(=O)[C@@H](NC(=O)OC)C(C)C)[nH]c54)c3)cc2)[nH]1)C(C)C [Example D-7, methyl ((1S)-1-(((1R,3S,5R)-3-(4-(4-((2-((1R,3S,5R)-2-((2S)-2-((methoxycarbonyl)amino)-3-methylbutanoyl)-2-azabicyclo[3.1.0]hex-3-yl)-1H-naphtho[1,2-d]imidazol-7-yl)ethynyl)phenyl)-1H-imidazol-2-yl)-2-azabicyclo[3.1.0]hex-2-yl)carbonyl)-2-methylpropyl)carbamate] | 0.002 to 0.099

Reference: US8796466B2, “Hepatitis C virus inhibitors” (Bristol-Myers Squibb Company, priority 2009, dated 2014)
